Legend:
Experiment in all cases: Dox fluorescence quenching
[1] = test system: MUC1 aptamer (Apt) (DNA, aptamer) GCAGTTGATCCTTTGGATACCCTGG; details: not stated; 3 nM Dox; complete quenching at DNA:Dox molar ratio 1; buffer not stated
[2] = test system: DNA tetrahedron (Td) (DNA, other) ACATTCCTAAGTCTGAAACATTACAGCTTGCTACACGAGAAGAGCCGCCATAGTA/TATCACCAGGCAGTTGACAGTGTAGCAAGCTGTAATAGATGCGAGGGTCCAATAC/TCAACTGCCTGGTGATAAAACGACACTACGTGGGAATCTACTATGGCGGCTCTTC/TTCAGACTTAGGAATGTGCTTCCCACGTAGTGTCGTTTGTATTGGACCCTCGCAT; details: not stated for assay; assembled in 50 mM MgCl2; 3 nM Dox; complete quenching at DNA:Dox molar ratio 0.05; Td assembled in 20 mM Tris-HCl, pH 8.0
[3] = test system: Apt-Td (aptamer-tetrahedron complex) (DNA, other) AGGAAGAGAGAAGGAAGGGAATTTTTACATTCCTAAGTCTGAAACATTACAGCTTGCTACACGAGAAGAGCCGCCATAGTA/TATCACCAGGCAGTTGACAGTGTAGCAAGCTGTAATAGATGCGAGGGTCCAATAC/TCAACTGCCTGGTGATAAAACGACACTACGTGGGAATCTACTATGGCGGCTCTTC/TTCAGACTTAGGAATGTGCTTCCCACGTAGTGTCGTTTGTATTGGACCCTCGCAT/TTCCCTTCCTTCTCTCTTCCTCTCTCGCAGTTGATCCTTTGGATACCCTG; details: not stated for assay; assembled in 50 mM MgCl2; 3 nM Dox; complete quenching at DNA:Dox molar ratio 0.04; assembled in 20 mM Tris-HCl, pH 8.0

Measured: binding

COc1cccc2c1C(=O)c1c(O)c3c(c(O)c1C2=O)C[C@@](O)(C(=O)CO)C[C@@H]3O[C@H]1C[C@H](N)[C@H](O)[C@H](C)O1
yes: all assays above

Source: paper PMC5122387 (2016)
